Results reported in patent US10544113B2 (priority 2016, dated 2020).

Assays:
[1] = molecular target: MOR (Rattus norvegicus, UniProt P33535); assay: cAMP assay (adenylyl cyclase inhibition) in HEK-MOR cells; type: cell-based
Description: (§1) Human embryonic kidney 293 (HEK-293) cells constitutively expressing MOR (HEK-MOR) and DOR (HEK-DOR) (kindly provided by Dr. Ping-Yee Law, University of Minnesota, USA) were cultured in high-glucose Dulbecco's modified Eagle's medium (DMEM, GIBCO) supplemented with 400 μg/mL G418 (Sigma), 2 mM L-glutamine and P/S/F (100 units/mL penicillin, 100 μg/mL streptomycin, 10% fetal bovine serum). Chinese hamster ovary (CHO)-K1 cells, stably expressing hMOR and Gα15 (CHO-K1/MOR/Gα15), were cultured in F12 medium (GIBCO) supplemented with 10 μg/mL Hygromycin B (Invivogen), 20 μg/mL Zeocin (Invivogen) P/S/F (100 units/mL penicillin, 100 μg/mL streptomycin, 10% fetal bovine serum). The cultures were incubated at 37° C. in a humidified 5% CO2 incubator.
Briefly, 2000 HEK-MOR cells or HEK-DOR cells were plated in 10 μL/well of DMEM in 96-well solid bottom white plates and 10 μL/well compound in HBSS in the presence with 1 μM forskolin and 100 μM 3-isobutyl-1-methylxanthine (IBMX). After 30 minutes of incubation at room temperature, 10 μL/well of labeled d2-cAMP and 10 μL/well of anti-cAMP antibody (both diluted in lysis buffer) were added to each well. Two hours later, plates were measured using the FlexStationIII (Molecular Devices Corp.) with excitation at 330 nm and emissions of 620 nm and 665 nm. […]

[2] = system: DOR; assay: cAMP assay (adenylyl cyclase inhibition) in HEK-DOR cells; type: cell-based; conditions: in the presence of naloxone (20 nM)
Description: as §1
Briefly, 2000 HEK-MOR cells or HEK-DOR cells were plated in 10 μL/well of DMEM in 96-well solid bottom white plates and 10 μL/well compound in HBSS in the presence with 1 μM forskolin and 100 μM 3-isobutyl-1-methylxanthine (IBMX). After 30 minutes of incubation at room temperature, 10 μL/well of labeled d2-cAMP and 10 μL/well of anti-cAMP antibody (both diluted in lysis buffer) were added to each well. Two hours later, plates were measured using the FlexStationIII (Molecular Devices Corp.) with excitation at 330 nm and emissions of 620 nm and 665 nm.
To characterize of novel opioid receptor AAMs, the activity and selectivity of compound 58 were tested by inhibiting adenylyl cyclase activity (i.e., cAMP assay).
Opoid receptors inhibit adenylyl cyclase activity through Gi/o family of heterotrimeric G proteins. A cAMP-accumulation assay was performed to determine whether opioid receptor AAMs affect a G protein-dependent signaling pathway.

[3] = system: B6 mice; assay: Tail-flick test; type: in vivo, mouse
Description: In an exemplary in vivo method, a test compound and a MOR antagonist are injected into a mouse pain model (for example, intravenous but not limited), basal latencies are recorded before the treatment and test latencies are recorded at various specified times after the injection, and a time-response curve is recorded and AUC values are calculated to determine whether an analgesic effect is exerted on the mouse. The test compound is confirmed to be an antagonist-to-agonist allosteric modifier of the MOR upon observation of an analgesic effect.
Male wild-type (WT) B6 mice (25-30 g) were kept in a temperature-controlled animal room with a 12-h light/dark cycle. The protocol has been approved by the Institutional Animal Care and Use Committee of the National Health Research Institutes, Taiwan. Animal experiments were carried out in accordance with the Policies on the Use of Animals in Neuroscience Research and the ethical guidelines for investigations of experimental pain in conscious animals, International Association for the Study of Pain. Tail-Flick Analgesia Meter (Columbia Instruments) was used to measure the tail-flick latencies of mice. The cut-off time for each measurement was 10 s to avoid tissue damage. Basal latencies were recorded before treatment and test latencies were recorded 30, 60, 90, 120 and 180 min after an intravenous injection of drugs. […] ED50 values were determined by the up-and-down method reported in Crocker et al., Pharmacol Biochem Behav, 1984, 21, 133-136.
An in vivo study, i.e., tail-flick test, was performed to investigate whether AAMs could change innate character of μ-opioid receptor in the presence of naloxone. […] In mice injected with naloxone (10 mg/kg; s.c.), the ED50 value of compound 58 in inhibition of the tail-flick response was determined to be 23.1±7.1 nmole.

Chain of MOR (P33535 whole entry, looked up): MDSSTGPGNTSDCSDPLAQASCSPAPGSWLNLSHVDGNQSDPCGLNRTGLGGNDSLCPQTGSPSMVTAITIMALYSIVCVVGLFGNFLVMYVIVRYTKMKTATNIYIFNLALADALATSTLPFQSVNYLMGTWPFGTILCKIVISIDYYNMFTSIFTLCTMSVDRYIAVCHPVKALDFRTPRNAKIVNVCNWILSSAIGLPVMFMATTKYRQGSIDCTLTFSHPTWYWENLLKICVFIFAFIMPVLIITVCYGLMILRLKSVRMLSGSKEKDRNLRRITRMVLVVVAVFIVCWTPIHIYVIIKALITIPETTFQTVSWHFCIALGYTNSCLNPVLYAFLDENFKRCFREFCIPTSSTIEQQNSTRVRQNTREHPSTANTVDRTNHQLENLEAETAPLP

## Cc1cc(C(=O)O)ccc1N1C(=O)CSC1c1ccc(F)cc1 (stereo not drawn)
[1]; HEK-MOR vs HEK-DOR, with naloxone (20 nM)
  selectivity mu over delta opioid receptor: selective for mu-over delta-opioid receptors
[1]; HEK-MOR, combined with naloxone (20 nM)
  inhibition of adenylyl cyclase activity: significantly inhibited adenylyl cyclase activity
[2]
  effect on adenylyl cyclase activity: produced no effect
[3]; 12.5 nmole i.t. with naloxone (10 mg/kg; s.c.)
  AUC of tail-flick inhibition: 241.5±111.3 min×s
[3]; 25 nmole i.t. with naloxone (10 mg/kg; s.c.)
  AUC of tail-flick inhibition: 560.6±96.5 min×s
[3]; 50 nmole i.t. with naloxone (10 mg/kg; s.c.)
  AUC of tail-flick inhibition: 649.8±123.3 min×s
[3]; B6 mice, 50, 25, 12.5 and 6.25 nmole i.t., no naloxone
  antinociceptive effect, compound alone: didn't exhibit any antinociceptive effects
[3]; mice injected with naloxone (10 mg/kg; s.c.), compound i.t.
  ED50 in inhibition of the tail-flick response: 23.1 ± 7.1 nmol
[3]; saline, highest dose 50 nmole i.t.
  antinociception effect in mice injected with saline: no antinociception effect was observed
